The source of these data is US11541065B2, “Compositions and methods for treating brain injury” (UNM RAINFOREST INNOVATIONS, priority 2018, dated 2023).

Series [1] deals with MCP-1. Put plainly: MCP-1 level in ischemic brain (ELISA). The format is in vivo, Wistar rats. The settings on record: HHcy rats, MCAO 60 minutes, six hours of reperfusion, NVP-AAM077 1.2 mg/kg intravenous at onset of insult. How it is done:
Wistar rats were made hyperhomocysteinemic using osmotic pump containing L-homocysteine. Animals were hyperhomocysteinemic (19-23 μM) within three days of pump implantation. Ischemic stroke was induced by MCAO for 60 minutes followed by reperfusion for six hours. Tissue punches from the ipsilateral striatum and cortex were lysed in ice-cold Phosphate buffered saline (pH 7.4) containing phosphatase inhibitor, sonicated three times in five-second bursts and placed on ice (two minutes) between each burst of sonication. The lysed cell suspensions were centrifuged at 10,000 rpm (10 minutes) and the supernatant was collected in another tube. Equal amounts of protein from the supernatant were processed for PGE2 and MCP-1 levels using respective ELISA kit.

In series [2] the test system is hyperhomocysteinemic rats subjected to MCAO. Put plainly: Cylinder test after MCAO. The settings on record: HHcy rats, day 8 after MCAO, NVP-AAM077 1.2 mg/kg; untreated HHcy 24.24±2.37%. The format is in vivo, male Wistar rats. The procedure: All rats were subjected to a battery of behavioral tests on day 7 (CatWalk), day 8 (cylinder and rotarod tests) and day 9 (adhesive test) after MCAO to evaluate normal gait, motor coordination and sensory motor functions. Habituation and training (3 days) was performed for one week before MCAO. The first two trainings days were before osmotic pump implantation and the third training day was after pump implantation. An experienced observer blinded to the experimental conditions evaluated all behavioral parameters.
Cylinder test: Control, hyperhomocysteinemic and NVP-AAM077 treated hyperhomocysteinemic rats were subjected to cylinder test to assess the post-stroke asymmetry in fore-limb use (Balkaya, 2013, J Cereb Blood Flow Metab 33:330-338). The rats were placed individually inside a transparent plexiglass cylinder (diameter 20 cm, height 45 cm). A vertical exploration movement with either the left or right forelimb along the wall was scored as contact of each paw with the glass wall for a total period of 2 minutes. Simultaneous contact by both paws was scored separately. Two trials (10 min rest between trials) were recorded and the percentage use of the affected fore limb was calculated (Liu et al., 2013, Behav Brain Res 257:166-177; Schaar et al., 2010, Exp Transl Stroke Med 2:13).

For series [3], the system named is COX2. Put plainly: COX2 protein level in WT and GluN2A-KO mouse neuronal cultures (immunoblot). As to conditions: L-homocysteine 50 μM, four hours. It counts as cell-based, mice. The procedure:
Equal protein from total cell lysates obtained from rat and mice neuronal cultures were resolved in 7.5% SDS-PAGE, and subjected to immunoblotting procedure as described earlier (Poddar and Paul, 2009, J Neurochem 110:1095-1106). Blots were analyzed with antibodies as described in each experiment. All primary antibodies (anti-COX2, anti-B-tubulin) and secondary-horse radish peroxidase conjugated antibody concentrations were used according to recommendations provided by the manufacturer. Signals from immune complexes in the blots were developed using West Pico supersignal chemiluminescence reagents and then captured on X-ray films. Densitometric analysis of the images was performed using the Image J software.
Rat and mice neuronal cultures were washed with PBS (pH 7.4), containing sodium pyrophosphate and sodium vanadate as phosphatase inhibitors, and harvested in SDS sample buffer (Laemmli, 1970, Nature 227:680-685). Equal protein from total cell lysates, estimated using BCA kit, was resolved by SDS-PAGE (7.5%) followed by western blotting on PVDF membranes. Immunoblot analysis was performed by first blocking with 5% non-fat dry milk for 1 h at room temperature followed by incubation with either COX2 immunoblot analysis (Poddar and Paul, 2009, J Neurochem 110:1095-1106) as described in each experiment. […]
Background: A western blot detects proteins with antibodies after separation by electrophoresis.

A short description of series [4]: Total plasma homocysteine after osmotic pump implantation, rats (HPLC). The format is in vivo. As to conditions: male, Wistar, rat, sc, 200 mM solution (2 ml osmotic pump, flow rate 10 μl/hr), subcutaneous osmotic pump with 200 mM L-homocysteine. The procedure:
L-homocysteine (200 mM) was freshly prepared by alkali hydrolysis of L-homocysteine thiolactone hydrochloride followed by neutralization, and maintained in 0.02 mM of N-Tris(hydroxymethyl)methyl-2-aminoethanesulfonic acid buffer pH 7.4 as previously described (Poddar et al., 2001, Circulation, 103:2717-2723). Osmotic pumps (Alzet, 2ML1, flow rate 10 μl/hr; Durect Corp., Cupertino, Calif.) containing either 2 ml of freshly prepared 200 mM L-homocysteine (for hyperhomocysteinemia) or normal saline (for control) were surgically implanted subcutaneously on the back and posterior to the scapulae of male Wistar rats under anesthesia (2% isoflurane in medical grade oxygen). The incision was closed after implantation and the rats were allowed to recover in their cage. For both WT and GluN2A-KO mice, osmotic pumps (Alzet, 2001, flow rate 1 μl/hr; Durect Corp., Cupertino, Calif.) containing either 200 μl of freshly prepared 200 mM L-homocysteine (for hyperhomocysteinemia) or normal saline (for control) were implanted similarly.
Blood was obtained from rats (retro-orbital) and mice (cardiac puncture) under anesthesia with 2% isoflurane in medical grade oxygen, before installation of osmotic pumps (0 day) and at various time points after installation of osmotic pumps (rats: day 3, day 5, and day 7; mice: day 3 and day 5). Blood was collected in standardized VACUTAINER venous blood collection EDTA-tubes (ThermoFisher Scientific, Inc., Waltham, Mass.) and centrifuged at 3,500 rpm for 15 minutes. The plasma obtained was analyzed for total plasma homocysteine levels using high performance liquid chromatography with post-column fluorescence detection as previously described (Gilfix et al., 1997, Clin Chem 43:687-688; Jacobsen et al., 1994, Clin Chem 40:873-881; Miller et al., 2013, Am J Clin Nutr 97:827-834).

Molecules are shown by their SMILES.

As for `C[C@H](NC(c1cccc2[nH]c(=O)c(=O)[nH]c12)P(=O)(O)O)c1ccc(Br)cc1` (stereo partly drawn) [NVP-AAM077, ({[(1S)-1-(4-bromophenyl)ethyl]amino}-(2,3-dioxo-1,4-dihydroquinoxalin-5-yl)methyl)phosphonic acid], the “MCP-1 level in ischemic hemisphere (cortex and striatum)” value in series [1] was “attenuated the increase in the level of both PGE2 and MCP-1”. The “spontaneous usage of the affected forepaw” value in series [2] was 40.51±1.86%.

With `N[C@@H](CCS)C(=O)O` [L-homocysteine], the COX2 protein level entry in series [3] (GluN2A-KO mice cultures) is “fails to augment COX2 protein expression”; in series [3] (WT mice cultures), “leads to increase in COX2 protein level”. In addition, the concentration at 3 day in series [4] (day 3, basal 8.8±0.76 μM, read-out: total plasma homocysteine level) came to 23.2 ± 0.52 µM. The concentration at 5 day in series [4] (day 5, read-out: total plasma homocysteine level) came to 23.6 ± 0.57 µM. Also, the concentration at 7 day in series [4] (day 7, read-out: total plasma homocysteine level) was 20.5 ± 0.88 µM.
